Like-named read-outs stand apart in the source and are kept apart here. Where a SMILES comes first, the peptide text is derived from it. Bridges are numbered along the chain shown (N, C = ends). [ ]: non-standard residue; d: D form. Pro(4S-NH2) = N[C@@H]1CN[C@H](C(=O)O)C1
What was measured:
HepG2 cells = assay: Cellular uptake assay of AF488-labeled antibody (HepG2); format: cell-based; settings: HepG2 cells, 100 nM AF488-labeled antibody, 37° C. for 6 hours; class symbols; read-out: Uptake Assay EC50
Method: The cellular uptake assay is designed to measure compound-mediated cellular uptake of fluorescently labeled antibody following ternary complex formation with the ASGPR receptor and endocytosis of the entire complex into cells.
Human IgG (Sigma-Aldrich, 14506) was covalently labeled with Alexa Fluor 488 using the Alexa Fluor™ 488 Protein Labeling Kit (Thermo Fisher, A10235) following the manufacturer's instructions. HepG2 cells were plated in DMEM supplemented with 10% FBS at 5,000 cells per well in a 96-well microtiter plate and incubated for approximately 18 hours at 37° C./5% CO2. For studies using human IgG, 100 nM AF488-labeled human IgG antibodies and serial dilutions of IgG-based degrader (0.1% DMSO final concentration) were added to the cells and the mixture was incubated at 37° C. for 6 hours. For studies using DNP, 100 nM AF488-labeled DNP antibodies and serial dilutions of DNP-based degrader (0.1% DMSO final concentration) were added to the cells and the mixture was incubated at 37° C. for 6 hours. HepG2 cells were fixed in 100% methanol at −20° C. for 20 min, washed 3× with PBS, then stained with DAPI (Thermo, Cat #H3570). HepG2 cells were imaged for DAPI and Alexa Fluor 488 using the Operetta CLS, high-content analysis system (PerkinElmer). Data is presented as the ratio of the number of cells positive for hIgG or DNP (AF-488 fluorescence) over the total cell number (measured by DAPI).

IgG = assay: Affinity to IgG by surface plasmon resonance (SPR); format: binding
Method: Immobilization levels ranging from 1000-1300 resonance units (RU) are obtained. The running buffer is 10 mM HEPES, pH 7.4, 400 mM NaCl, 0.005% P20, […].

ASGPR = molecular target: T1, ASGPR (Homo sapiens, UniProt P07306); assay: Affinity to ASGPR by surface plasmon resonance (SPR)
T1 sequence (P07306 1-291): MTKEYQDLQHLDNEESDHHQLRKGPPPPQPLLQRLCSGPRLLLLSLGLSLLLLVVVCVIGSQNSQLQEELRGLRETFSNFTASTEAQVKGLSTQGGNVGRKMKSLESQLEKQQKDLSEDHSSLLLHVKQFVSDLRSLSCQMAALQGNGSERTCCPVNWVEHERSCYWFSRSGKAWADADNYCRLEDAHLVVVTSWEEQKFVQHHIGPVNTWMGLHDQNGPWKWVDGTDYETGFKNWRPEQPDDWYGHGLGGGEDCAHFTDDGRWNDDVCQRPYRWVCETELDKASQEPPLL

[1] = Biacore 8K, 25° C., IgG on CM5 chip, read-out: IgG SPR Binding Kd

Row | SMILES | EC50 (HepG2 cells) | Kd (IgG; [1]) | Kd (ASGPR) | Kd (IgG; SPR, read-out: IgG KD)
1 | CC(C)C[C@@H]1NC(=O)[C@H](Cc2c[nH]cn2)NC(=O)[C@H](Cc2c[nH]c3ccccc23)NC(=O)[C@H](C)NC(=O)[C@@H]2CSSC[C@H](NC(=O)[C@H](Cc3c[nH]c4ccccc34)NC(=O)[C@H](C(C)C)NC(=O)[C@H](CC(C)C)NC(=O)[C@H](CCC(=O)O)NC(=O)CNC1=O)C(=O)N[C@@H]([C@@H](C)O)C(=O)N1CCC[C@@H]1C(=O)N1C[C@@H](NC(=O)CCOCCOCCNC(=O)CCCc3cn(CCCCCC(=O)NC(COCCC(=O)NCCOCCOCCOCCOC[C@H]4OC[C@H](Nc5nccc(C(F)(F)F)n5)[C@@H](O)[C@H]4O)COCCC(=O)NCCOCCOCCOCCOC[C@H]4OC[C@H](Nc5nccc(C(F)(F)F)n5)[C@@H](O)[C@H]4O)nn3)C[C@H]1C(=O)N[C@@H](CC(=O)O)C(=O)N2 [Compound 12] | < 100 nM | – | – | –
2 | CC(C)C[C@@H]1NC(=O)[C@H](Cc2c[nH]cn2)NC(=O)[C@H](Cc2c[nH]c3ccccc23)NC(=O)[C@H](C)NC(=O)[C@@H]2CSSC[C@H](NC(=O)[C@H](Cc3c[nH]c4ccccc34)NC(=O)[C@H](C(C)C)NC(=O)[C@H](CC(C)C)NC(=O)[C@H](CCC(=O)O)NC(=O)CNC1=O)C(=O)N[C@@H]([C@@H](C)O)C(=O)N1CCC[C@@H]1C(=O)N1C[C@@H](NC(=O)CCOCCOCCNC(=O)CCCc3cn(C[C@@]45CO[C@@H](O4)[C@H](Nc4nc(Cl)ns4)[C@@H](O)[C@H]5O)nn3)C[C@H]1C(=O)N[C@@H](CC(=O)O)C(=O)N2 [Compound 13] | 100 to 500 nM | – | – | –
3 | CC(C)C[C@@H]1NC(=O)[C@H](Cc2c[nH]cn2)NC(=O)[C@H](Cc2c[nH]c3ccccc23)NC(=O)[C@H](C)NC(=O)[C@@H]2CSSC[C@H](NC(=O)[C@H](Cc3c[nH]c4ccccc34)NC(=O)[C@H](C(C)C)NC(=O)[C@H](CC(C)C)NC(=O)[C@H](CCC(=O)O)NC(=O)CNC1=O)C(=O)N[C@@H]([C@@H](C)O)C(=O)N1CCC[C@@H]1C(=O)N1C[C@@H](NC(=O)CCOCCOCCOCCOCCNC(=O)CCCc3cn(CCCCCC(=O)NC(COCCC(=O)NCCOCCOCCOCCOC[C@@]45CO[C@@H](O4)[C@H](Nc4nc(Cl)ns4)[C@@H](O)[C@H]5O)COCCC(=O)NCCOCCOCCOCCOC[C@@]45CO[C@@H](O4)[C@H](Nc4nc(Cl)ns4)[C@@H](O)[C@H]5O)nn3)C[C@H]1C(=O)N[C@@H](CC(=O)O)C(=O)N2 [Compound 14] | < 100 nM | – | – | –
4 | CC(C)C[C@@H]1NC(=O)[C@H](Cc2c[nH]cn2)NC(=O)[C@H](Cc2c[nH]c3ccccc23)NC(=O)[C@H](C)NC(=O)[C@@H]2CSSC[C@H](NC(=O)[C@H](Cc3c[nH]c4ccccc34)NC(=O)[C@H](C(C)C)NC(=O)[C@H](CC(C)C)NC(=O)[C@H](CCC(=O)O)NC(=O)CNC1=O)C(=O)N[C@@H]([C@@H](C)O)C(=O)N1CCC[C@@H]1C(=O)N1C[C@@H](NC(=O)CCOCCOCCOCCOCCNC(=O)CCCc3cn(C[C@@]45CO[C@@H](O4)[C@H](Nc4nc(Cl)ns4)[C@@H](O)[C@H]5O)nn3)C[C@H]1C(=O)N[C@@H](CC(=O)O)C(=O)N2 [Compound 15] | 100 to 500 nM | < 100 nM | – | –
5 | CC(C)C[C@@H]1NC(=O)[C@H](Cc2c[nH]cn2)NC(=O)[C@H](Cc2c[nH]c3ccccc23)NC(=O)[C@H](C)NC(=O)[C@@H]2CSSC[C@H](NC(=O)[C@H](Cc3c[nH]c4ccccc34)NC(=O)[C@H](C(C)C)NC(=O)[C@H](CC(C)C)NC(=O)[C@H](CCC(=O)O)NC(=O)CNC1=O)C(=O)N[C@@H]([C@@H](C)O)C(=O)N1CCC[C@@H]1C(=O)N1C[C@@H](NC(=O)CCOCCOCCNC(=O)CCCc3cn(CCCCCC(=O)NC(COCCC(=O)NCCOCCOCCOCCOC[C@@]45CO[C@@H](O4)[C@H](Nc4nc(Cl)ns4)[C@@H](O)[C@H]5O)COCCC(=O)NCCOCCOCCOCCOC[C@@]45CO[C@@H](O4)[C@H](Nc4nc(Cl)ns4)[C@@H](O)[C@H]5O)nn3)C[C@H]1C(=O)N[C@@H](CC(=O)O)C(=O)N2 [Compound 17] | < 100 nM | < 100 nM | – | –
6 | CC(C)C[C@@H]1NC(=O)[C@H](Cc2cnc[nH]2)NC(=O)[C@H](Cc2c[nH]c3ccccc23)NC(=O)[C@H](C)NC(=O)[C@@H]2CSSC[C@H](NC(=O)[C@H](Cc3c[nH]c4ccccc34)NC(=O)[C@H](C(C)C)NC(=O)[C@H](CC(C)C)NC(=O)[C@H](CCC(=O)O)NC(=O)CNC1=O)C(=O)N[C@@H]([C@@H](C)O)C(=O)N1CCC[C@@H]1C(=O)N1C[C@@H](NC(=O)CCCc3cn(C[C@H]4OC[C@H](Nc5nccc(C(F)(F)F)n5)[C@@H](O)[C@H]4O)nn3)C[C@H]1C(=O)N[C@@H](CC(=O)O)C(=O)N2 [Compound 80] | – | – | > 1000 nM | < 100 nM
7 | CC(C)C[C@@H]1NC(=O)[C@H](Cc2cnc[nH]2)NC(=O)[C@H](Cc2c[nH]c3ccccc23)NC(=O)[C@H](C)NC(=O)[C@@H]2CSSC[C@H](NC(=O)[C@H](Cc3c[nH]c4ccccc34)NC(=O)[C@H](C(C)C)NC(=O)[C@H](CC(C)C)NC(=O)[C@H](CCC(=O)N(C)C)NC(=O)CNC1=O)C(=O)N[C@@H]([C@@H](C)O)C(=O)N1CCC[C@@H]1C(=O)N1C[C@@H](N)C[C@H]1C(=O)N[C@@H](CC(=O)O)C(=O)N2 [Intermediate 23] | – | < 100 nM | – | < 100 nM
8 | CC(C)C[C@@H]1NC(=O)[C@H](C)NC(=O)CNC(=O)[C@H](CC(C)C)NC(=O)[C@H](Cc2cnc[nH]2)NC(=O)[C@H](Cc2c[nH]c3ccccc23)NC(=O)[C@H](C)NC(=O)[C@@H]2CSSC[C@H](NC(=O)[C@H](Cc3c[nH]c4ccccc34)NC(=O)[C@H](C(C)C)NC1=O)C(=O)N[C@@H]([C@@H](C)O)C(=O)N1CCC[C@@H]1C(=O)N1C[C@@H](N)C[C@H]1C(=O)N[C@@H](C)C(=O)N2 [Intermediate 25] (cyclo(ACAWHLGALVWCT[dP][Pro(4S-NH2)]); disulfide 2-12) | – | < 100 nM | – | < 100 nM
9 | CC(C)C[C@@H]1NC(=O)[C@H](Cc2cnc[nH]2)NC(=O)[C@H](Cc2c[nH]c3ccccc23)NC(=O)[C@H](C)NC(=O)[C@@H]2CSSC[C@H](NC(=O)[C@H](Cc3c[nH]c4ccccc34)NC(=O)[C@H](C(C)C)NC(=O)[C@H](CC(C)C)NC(=O)[C@H](CCC(=O)N(C)C)NC(=O)CNC1=O)C(=O)N[C@@H]([C@@H](C)O)C(=O)N1CCC[C@@H]1C(=O)N1C[C@@H](N)C[C@H]1C(=O)N[C@@H](CC(N)=O)C(=O)N2 [Intermediate 27] (cyclo(AWHLGE(NMe2)LVWCT[dP][Pro(4S-NH2)]NC); disulfide 10-15) | – | < 100 nM | – | < 100 nM
10 | CC(C)C[C@@H]1NC(=O)[C@H](C)NC(=O)CNC(=O)[C@H](CC(C)C)NC(=O)[C@H](Cc2cnc[nH]2)NC(=O)[C@H](Cc2c[nH]c3ccccc23)NC(=O)[C@H](C)NC(=O)[C@@H]2CSSC[C@H](NC(=O)[C@H](Cc3c[nH]c4ccccc34)NC(=O)[C@H](C(C)C)NC1=O)C(=O)N[C@@H]([C@@H](C)O)C(=O)N1CCC[C@@H]1C(=O)N1C[C@@H](N)C[C@H]1C(=O)N[C@@H](CC(N)=O)C(=O)N2 [Intermediate 28] (cyclo(ALVWCT[dP][Pro(4S-NH2)]NCAWHLG); disulfide 5-10) | – | < 100 nM | – | < 100 nM
11 | CC(C)C[C@@H]1NC(=O)[C@H](Cc2cnc[nH]2)NC(=O)[C@H](Cc2c[nH]c3ccccc23)NC(=O)[C@H](C)NC(=O)[C@@H]2CSSC[C@H](NC(=O)[C@H](Cc3c[nH]c4ccc(Cl)cc34)NC(=O)[C@H](C(C)C)NC(=O)[C@H](CC(C)C)NC(=O)[C@H](CCC(=O)O)NC(=O)CNC1=O)C(=O)N[C@@H]([C@@H](C)O)C(=O)N1CCC[C@@H]1C(=O)N1C[C@@H](N)C[C@H]1C(=O)N[C@@H](CC(=O)O)C(=O)N2 [Intermediate 29] | – | < 100 nM | – | < 100 nM
12 | CC(C)C[C@@H]1NC(=O)[C@H](Cc2cnc[nH]2)NC(=O)[C@H](Cc2c[nH]c3ccccc23)NC(=O)[C@H](C)NC(=O)[C@@H]2CSSC[C@H](NC(=O)[C@H](Cc3c[nH]c4ccccc34)NC(=O)[C@H](C(C)C)NC(=O)[C@H](CC(C)C)NC(=O)[C@H](CCC(=O)O)NC(=O)CNC1=O)C(=O)N[C@@H]([C@@H](C)O)C(=O)N1CCC[C@@H]1C(=O)N1C[C@H](N)C[C@H]1C(=O)N[C@@H](CC(=O)O)C(=O)N2 [Intermediate 30] | – | – | – | < 100 nM

From patent publication US12091402B2 (Avilar Therapeutics, Inc., priority 2021, dated 2024)
